Measured values published in paper PMC12645191, “Dicarboxylate and dicarboxylic acid appended supramolecular self-associating amphiphiles as antimicrobial agents against high priority bacterial pathogens” (Organic & Biomolecular Chemistry, 2025).
Values joined by “and” are separate entries in the source; they are usually repeats but may differ in a detail not shown here. Equal values may be shown once. Read-outs that look alike come from different tables or passages of the source. Marks after values point to notes of the source that are not given here.

Legend:
[1] = protein binding in human plasma by equilibrium dialysis; assay type: in vitro ADME; conditions: human plasma, 5 µM, 37 °C; for recovery at 6 h, 5 µM / remaining at 6 h, 5 µM / fraction unbound at 6 h, 5 µM: human; for remaining at 6 h, 5 µM / fraction unbound at 6 h, 5 µM: plasma
Method: Metabolic stability was assessed in mouse and rat liver microsomes. […] A plasma protein binding assay was performed to assess the extent of compound binding to plasma proteins. This is key as only unbound compound is free to distribute and exert a pharmacological effect. […] To assess the potential for this sub-class of SSAs to be developed as drugs for oral administration, Caco-2 permeability assays were also performed, as a cellular model indicative of human intestinal permeability. […] The […] MS/MS analysis. Samples were analysed using a Shimadzu liquid chromatography system coupled to a Triple Quad 6500+ mass spectrometry (AB Inc.) Separation of compounds was achieved using an HSS T3 column (50 x 2.1 mm) at a temperature of 40 °C and a binary mobile phase gradient at a flow rate of 0.7 mL/min. […] This was ramped to 95 % solvent B at 0.7 minutes, held for 0.5 minutes and then […] returned to initial conditions. Sample analysis was by electrospray ionisation. Protein Binding Measurements in Human Plasma by Using Equilibrium Dialysis Method : The fraction unbound in human plasma (P -KB, Ltd People's hospital of Shandong) were measured using 96-well Equilibrium Dialysis Plate (HTDialysis LLC, Gales Ferry, CT). Human plasma containing 5 μM test compound were dialysed against dialysis buffer (PBS) with initial samples taken to allow for assessment of plasma stability and recovery before the plate was incubated for 6 hours at 37 °C at 5 % CO2. Samples were removed at 6 hours, and all samples […] appropriate analytical internal standard. Samples were centrifuged at 3,220 g for 30 minutes (Eppendorf 5810R) to precipitate protein and enable sampling of supernatant prior to appropriate dilution for liquid chromatography mass -spectrometry (LC-MS/MS) analysis. Samples were analysed using a Shimadzu coupled to a triple Quad 6500 + (AB Inc., Illinois). Separation of analytes was achieved using a Xselect Hss T3 (2.1 x 50 mm) column at a temperature of 40 °C and a binary mobile phase gra dient at a flow rate of 0.8 mL/min. Initial […] formic acid in acetonitrile); this was ramped to 98 % B at 0.5 min, held for 0.4 min and then immediately returned to initial conditions. Sample analysis was by electrospray ionisation in positive ion mode. Bi-directional Permeability in Caco-2 Cell Line: The bi-directional permeability in Caco-2 cell lines was determined by seeding cells onto an HTS Transwell plate. Cells were cultivated for 14-18 days in a cell culture incubator at 37 °C, 5 % CO2, 95 % relative humidity. Cell culture medium was replaced every other day. To assess monolayer integrity the transepithelial electrical resistance (TEER) across the monolayer was measured using Millicell Epithelial volt-ohm meter prior to assay and Lucifer yellow (LY) fluorescence measurement post-assay. Test and control compounds were prepared in DMSO and diluted in Hank's Balanced Saline […] Compound was added to the donor compartment of the transwell plate for both apical to basolateral (A>B) and basolateral to apical (B>A) measurements, with blank HBSS being added to the receiver compartment. The transwell plate was then incubated at 37 °C, 5 % CO2 for 2 hours. 5

A. baumannii ATCC 17978 = assay: inhibition of bacterial growth, OD600 after 20 h; assay type: cell-based, Acinetobacter baumannii; conditions: SSA 5.0 mM, 2.5% ethanol, negative = enhanced growth
Method: (§1) With the self-associative properties of 1–10 established, the antimicrobial activity of these SSAs were determined against a panel of clinically relevant, high-priority pathogens including: P. aeruginosa PAO1; Klebsiella pneumonia (K. pneumoniae) M6; E. coli NCTC 12923; Acinetobacter baumannii (A. baumannii) ATCC 17978; S. aureus ATCC 9144; Enterococcus faecalis (E. faecalis) NCTC 775; and Enterococcus faecium (E. faecium) NCTC 12204. […] However, it should be noted that the SSA stock solution was prepared in a H2O 5% EtOH solution, to ensure that the SSA aggregates formed were in line with those characterised within the scope of the SSA self-association studies.
(§2) Section 3: Biological methods
(§3) These methods were taken directly from UK Health and Security Office (UKHSA) standard […]
(§4) Preparation of Luria Broth media (LB): Yeast extract (5.0 g), tryptone (10.0 g) and sodium chloride (10.0 g) were dissolved in dH₂O (1.0 L) then divided into bottles and autoclaved.
(§5) Preparation of Luria Broth (LB) agar plates: Agar (6.0 g) was added to LB (400 mL) and autoclaved. Once cool, the LB agar was poured into sterile petri dishes under sterile conditions and allowed to set. LB plates were stored at 4 °C until use.
(§6) Preparation of bacterial plates: Sterile LB agar plates were streaked using streaked using the desired bacteria i) Pseudomonas aeruginosa (P.aeruginosa) PAO1, ii) Klebsiella pneumoniae (K. pneumoniae) M6 iii) E. coli NCTC 12923 and iv) Acinetobacter baumannii (A. baumannii) ATCC 17978 and Gram-positive i) Staphylococcus aureus (S. aureus) ATCC 9144 ii) Enterococcus faecalis (E. faecalis) NCTC 775 and iii) Enterococcus faecium (E. faecium ) NCTC 12204, then incubated at 37 °C overnight.
(§7) Preparation of Inoculum: An initial culture was made up by inoculating LB media (5 mL) with a single colony of bacteria under sterile conditions and incubated at 37 °C with shaking overnight. The following day, overnight bacterial cultures were subcultured into fresh LB medium to a starting OD600 of 0.01.
(§8) Preparation of 96 well microplate for MIC50: The 1:100 cell suspension (150 µL) was dispensed into individual wells under sterile conditions. SSAs (30 µL) were added to the wells to equal a total volume of 180 µL in the wells. Six repeats of each concentration for each SSA were created each plate. The plates were sealed using parafilm, then incubated at 37 °C in a microplate reader for 20 hours. OD600 endpoint data was used to generate growth curves. […]

E. faecalis NCTC 775 = assay: inhibition of bacterial growth, OD600 after 20 h; assay type: cell-based, Enterococcus faecalis; conditions: SSA 5.0 mM, 2.5% ethanol, negative = enhanced growth
Method: as §1, §2, §3, §4, §5, §6, §7, §8

[2] = tensiometry: critical aggregate concentration (CAC) and surface tension; assay type: physicochemical; conditions: for Surface tension at CAC: H2O/5.0 % EtOH
Method: As the (Q) ^1H NMR spectroscopy experiments conducted at 5.6 mM in a D2O 5.0% EtOH solution confirmed the presence of higher-order self-associated structures with solid-like properties, concentration dependent surface tension measurements, obtained through tensiometry, were used to calculate critical aggregate concentration (CAC). Here the CAC is defined as the point at which an increase in SSA concentration no longer decreases surface tension but instead results in the formation of higher-order self-associated structures.

[3] = 6 hours, read-out: % Bound (converted)

recovery at 6 h, 5 µM ([1]; 6 hours)	remaining at 6 h, 5 µM [1]	fraction unbound at 6 h, 5 µM [1, 3]	fraction unbound at 6 h, 5 µM ([1]; 6 hours, read-out: % Unbound)	CAC ([2]; H2O 5.0% EtOH, 298 K)	ST at CAC ([2]; H2O 5.0% EtOH, 298 K)	Surface tension at CAC [2]	SMILES	Percentage inhibition of bacterial growth, ATCC 17978 (A. baumannii) (A. baumannii ATCC 17978)	Percentage inhibition of bacterial growth, NCTC 775 (E. faecalis) (E. faecalis NCTC 775)	other results
94.9%	106%	0.166	0.166	–	–	–	O=C(O)CC[C@H](NC(=O)Nc1ccc(Br)cc1)C(=O)O [SSA 9]	–	–	Percentage inhibition of bacterial growth, ATCC 17978 (A. baumannii) (A. baumannii ATCC 17978; listed as 9): -8.08% and −8%; Percentage inhibition of bacterial growth, NCTC 775 (E. faecalis) (E. faecalis NCTC 775; listed as 9): 20%; CAC (footnote in place of a value) ([2]; H2O 5.0% EtOH, 298 K): ^c (CAC is >100 mM); ST at the limit of solubility or 100 mM, whichever concentration is lower ([2]; H2O 5.0% EtOH, 298 K): 54 ^d mN m^−1; Surface tension at CAC ([2]; listed as 9): 54.44 mN/m
99.6%	102%	0.23	0.23	–	–	–	O=C(O)CC[C@@H](NC(=O)Nc1ccc(C(F)(F)F)cc1)C(=O)O [SSA 3]	–	–	Percentage inhibition of bacterial growth, ATCC 17978 (A. baumannii) (A. baumannii ATCC 17978; listed as 3): 94.45% and 94%; inhibition at 5000 µM (E. faecalis NCTC 775; Enterococcus faecalis, NCTC775, 20 h, read-out: Percentage inhibition of bacterial growth, NCTC 775 (E. faecalis)): 98.8%; Percentage inhibition of bacterial growth, NCTC 775 (E. faecalis) (E. faecalis NCTC 775; listed as 3): 99%; CAC ([2]; H2O 5.0% EtOH, 298 K, listed as 3): 17.46 mM and 20 mM; Surface tension at CAC ([2]; listed as 3): 38.73 mN/m
–	–	–	–	19.84 mM and 20 mM	37 mN m^−1	37.13 mN/m	O=C(O)CC[C@H](NC(=O)Nc1ccc(C(F)(F)F)cc1)C(=O)O [SSA 2]	-23.34% and −23%	21.86% and 22%	% Remaining at 6 hr [1]: 108.64%; % Bound ([1]; 6 hours): 78.73%; % Recovery ([1]; 6 hours): 97.50%; % Unbound ([1]; 6 hours): 21.27%
97.3%	104%	0.217	0.217	19.23 mM and 19 mM	39 mN m^−1	38.90 mN/m	O=C(O)CC[C@H](NC(=O)Nc1ccc(C(F)(F)F)cc1)C(=O)O [SSA 1]	90.67% and 91%	98.79% and 99%	–
